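Assay format: 96-well plates, 48-hour exposure. The concentration for 50% growth inhibition is given as GI50.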 Calls of active or inactive are those of the source. No stated cut-off is given here; in the data, active = GI50 up to about 1.1 µM and inactive = higher.
What was measured:
Experiment in all cases: inhibition of tumour cell growth, NCI panel, 48 h
SK-MEL-5 = tested on: SK-MEL-5
Malme-3M = tested on: Malme-3M
A498 = tested on: A498
SK-OV-3 = tested on: SK-OV-3
U-251 = tested on: U-251
BT-549 = tested on: BT-549
OVCAR-8 = tested on: OVCAR-8
HCT-15 = tested on: HCT-15
UACC-62 = tested on: UACC-62
K562 = tested on: K562
SR = tested on: SR
IGROV-1 = tested on: IGROV-1
RPMI-8226 = tested on: RPMI-8226
NCI/ADR-RES = tested on: NCI/ADR-RES
HT-29 = tested on: HT-29
MDA-MB-231 = tested on: MDA-MB-231
SF-295 = tested on: SF-295
SN12C = tested on: SN12C
HOP-62 = tested on: HOP-62
UACC-257 = tested on: UACC-257

SMILES	GI50 (SK-MEL-5)	GI50 (Malme-3M)	GI50 (A498)	GI50 (SK-OV-3)	GI50 (U-251)	GI50 (BT-549)	GI50 (OVCAR-8)	GI50 (HCT-15) [µM]	GI50 (UACC-62)	GI50 (K562)	GI50 (SR)	GI50 (IGROV-1)	GI50 (RPMI-8226)	GI50 (NCI/ADR-RES)	GI50 (HT-29)	GI50 (MDA-MB-231)	GI50 (SF-295)	GI50 (SN12C)	GI50 (HOP-62)	GI50 (UACC-257)
c1ccc2cc(NCNc3ccc4ccccc4c3)ccc2c1	6.25 µM (inactive)	0.927 µM (active)	19.9 µM (inactive)	33.6 µM (inactive)	23.3 µM (inactive)	24.9 µM (inactive)	17.5 µM (inactive)	15.6	14.7 µM (inactive)	0.951 µM (active)	2.42 µM (inactive)	7.52 µM (inactive)	6.1 µM (inactive)	21.7 µM (inactive)	19 µM (inactive)	2.51 µM (inactive)	15.2 µM (inactive)	9.53 µM (inactive)	19.5 µM (inactive)	8.73 µM (inactive)
O=C(O)C/C(=C\c1ccco1)C(=O)O	> 100 µM (inactive)	> 100 µM (inactive)	> 100 µM (inactive)	> 100 µM (inactive)	> 100 µM (inactive)	> 100 µM (inactive)	> 100 µM (inactive)	> 100	> 100 µM (inactive)	> 100 µM (inactive)	> 100 µM (inactive)	> 100 µM (inactive)	> 100 µM (inactive)	> 100 µM (inactive)	> 100 µM (inactive)	> 100 µM (inactive)	> 100 µM (inactive)	> 100 µM (inactive)	> 100 µM (inactive)	> 100 µM (inactive)
Oc1c(/N=N\c2ccccc2)c2cccc3ccc4cccc1c4c32	> 100 µM (inactive)	> 100 µM (inactive)	> 100 µM (inactive)	> 100 µM (inactive)	42.7 µM (inactive)	> 100 µM (inactive)	40.2 µM (inactive)	> 100	> 100 µM (inactive)	> 100 µM (inactive)	20.9 µM (inactive)	> 100 µM (inactive)	> 100 µM (inactive)	> 100 µM (inactive)	> 100 µM (inactive)	94.4 µM (inactive)	81.7 µM (inactive)	> 100 µM (inactive)	29.6 µM (inactive)	> 100 µM (inactive)
O=c1[nH]cc(/N=C/c2cc(Cl)ccc2O)c(=O)[nH]1	20.1 µM (inactive)	25.1 µM (inactive)	> 100 µM (inactive)	18.7 µM (inactive)	8.05 µM (inactive)	4.84 µM (inactive)	4.35 µM (inactive)	2.22	21.9 µM (inactive)	7.26 µM (inactive)	1.85 µM (inactive)	7.83 µM (inactive)	5.93 µM (inactive)	13.1 µM (inactive)	31.3 µM (inactive)	19.6 µM (inactive)	14.1 µM (inactive)	9.04 µM (inactive)	20.6 µM (inactive)	58.7 µM (inactive)
CNC(c1ccncc1)C(NC)c1ccncc1 (stereo not given)	> 100 µM (inactive)	> 100 µM (inactive)	> 100 µM (inactive)	> 100 µM (inactive)	> 100 µM (inactive)	> 100 µM (inactive)	> 100 µM (inactive)	> 100	> 100 µM (inactive)	> 100 µM (inactive)	> 100 µM (inactive)	> 100 µM (inactive)	> 100 µM (inactive)	> 100 µM (inactive)	> 100 µM (inactive)	> 100 µM (inactive)	> 100 µM (inactive)	> 100 µM (inactive)	> 100 µM (inactive)	> 100 µM (inactive)
Cc1ccc(OCC2OC(n3cnc4nc(Cl)nc(Cl)c43)CC2Oc2ccc(C)cc2)cc1 (stereo not given)	16.3 µM (inactive)	13.6 µM (inactive)	22.4 µM (inactive)	30.3 µM (inactive)	11.1 µM (inactive)	9.51 µM (inactive)	13.1 µM (inactive)	2.36	6.04 µM (inactive)	1.95 µM (inactive)	1.78 µM (inactive)	5.36 µM (inactive)	2.62 µM (inactive)	15.3 µM (inactive)	5.85 µM (inactive)	2.51 µM (inactive)	16.4 µM (inactive)	7.31 µM (inactive)	16.3 µM (inactive)	12.9 µM (inactive)
O=C1c2ccccc2NC(=S)[C@@H]2CCCN12	> 100 µM (inactive)	> 100 µM (inactive)	> 100 µM (inactive)	> 100 µM (inactive)	> 100 µM (inactive)	> 100 µM (inactive)	> 100 µM (inactive)	> 100	> 100 µM (inactive)	> 100 µM (inactive)	> 100 µM (inactive)	> 100 µM (inactive)	> 100 µM (inactive)	> 100 µM (inactive)	> 100 µM (inactive)	> 100 µM (inactive)	> 100 µM (inactive)	> 100 µM (inactive)	> 100 µM (inactive)	> 100 µM (inactive)
O=C1Nc2ccccc2S/C1=C\c1ccc(C(F)(F)F)cc1	> 100 µM (inactive)	> 100 µM (inactive)	> 100 µM (inactive)	> 100 µM (inactive)	> 100 µM (inactive)	> 100 µM (inactive)	> 100 µM (inactive)	> 100	> 100 µM (inactive)	> 100 µM (inactive)	> 100 µM (inactive)	> 100 µM (inactive)	> 100 µM (inactive)	> 100 µM (inactive)	> 100 µM (inactive)	> 100 µM (inactive)	> 100 µM (inactive)	> 100 µM (inactive)	> 100 µM (inactive)	> 100 µM (inactive)
[O-][n+]1cn[n+]([O-])c2ccccc21	> 10 µM (inactive)	18.6 µM (inactive)	61.4 µM (inactive)	27.3 µM (inactive)	32.4 µM (inactive)	23.7 µM (inactive)	18.9 µM (inactive)	16.4	16.3 µM (inactive)	6.95 µM (inactive)	18.4 µM (inactive)	11.2 µM (inactive)	28.6 µM (inactive)	23.5 µM (inactive)	13.6 µM (inactive)	14.3 µM (inactive)	30.3 µM (inactive)	38.3 µM (inactive)	17.9 µM (inactive)	16.9 µM (inactive)
C#CCNC(=O)NC(CCCCNC(=O)OCc1ccccc1)C(=O)OCc1ccccc1 (stereo not given)	18.3 µM (inactive)	24.2 µM (inactive)	21.9 µM (inactive)	> 100 µM (inactive)	> 72.1 µM (inactive)	> 100 µM (inactive)	95.1 µM (inactive)	> 100	12.7 µM (inactive)	53.6 µM (inactive)	34.8 µM (inactive)	> 100 µM (inactive)	26.7 µM (inactive)	> 100 µM (inactive)	> 56.2 µM (inactive)	> 39.2 µM (inactive)	> 61 µM (inactive)	37.4 µM (inactive)	> 100 µM (inactive)	19.7 µM (inactive)
CCC1(O)CC(OC2CC(N(C)C)C(OC3CC(O)C(OC4CCC(=O)C(C)O4)C(C)O3)C(C)O2)c2c(cc3c(c2O)C(=O)c2c(O)ccc(O)c2C3=O)C1C(=O)OC (stereo not given)	< 0.01 µM (active)	< 0.01 µM (active)	< 0.01 µM (active)	< 0.01 µM (active)	< 0.01 µM (active)	< 0.0152 µM (active)	< 0.01 µM (active)	< 0.01	< 0.01 µM (active)	< 0.01 µM (active)	< 0.01 µM (active)	< 0.01 µM (active)	< 0.01 µM (active)	< 0.01 µM (active)	< 0.01 µM (active)	< 0.0132 µM (active)	< 0.01 µM (active)	< 0.01 µM (active)	< 0.01 µM (active)	< 0.01 µM (active)
O=C1C2CC=CCC2C(=O)N1n1c(Cc2ccc(Cl)cc2)n[nH]c1=O (stereo not given)	> 100 µM (inactive)	> 100 µM (inactive)	> 100 µM (inactive)	> 100 µM (inactive)	> 100 µM (inactive)	> 100 µM (inactive)	> 100 µM (inactive)	> 100	> 100 µM (inactive)	> 100 µM (inactive)	> 100 µM (inactive)	> 100 µM (inactive)	> 100 µM (inactive)	> 100 µM (inactive)	> 100 µM (inactive)	> 100 µM (inactive)	> 100 µM (inactive)	> 100 µM (inactive)	> 100 µM (inactive)	> 100 µM (inactive)
C=CCSC1=N/C(=C\c2ccc(OC)cc2)C(=O)N1CC=C	15.6 µM (inactive)	27.7 µM (inactive)	14.9 µM (inactive)	> 100 µM (inactive)	24.3 µM (inactive)	27 µM (inactive)	36.2 µM (inactive)	20.8	30.3 µM (inactive)	23.7 µM (inactive)	13.5 µM (inactive)	> 100 µM (inactive)	15.5 µM (inactive)	27.6 µM (inactive)	20.2 µM (inactive)	37.2 µM (inactive)	35.3 µM (inactive)	24.1 µM (inactive)	74.6 µM (inactive)	23.2 µM (inactive)
CC1=C(/C=C/C(C)=C/C=C/C(C)=C/C(=O)O)C(C)(C)CCC1 [TRETINOIN]	47.8 µM (inactive)	46.3 µM (inactive)	> 74.5 µM (inactive)	> 71.8 µM (inactive)	51.3 µM (inactive)	37.3 µM (inactive)	> 65.3 µM (inactive)	48.2	> 64.3 µM (inactive)	39.4 µM (inactive)	47 µM (inactive)	> 78.9 µM (inactive)	1.34 µM (inactive)	37.3 µM (inactive)	47.6 µM (inactive)	50.4 µM (inactive)	54.8 µM (inactive)	52 µM (inactive)	49.9 µM (inactive)	62.4 µM (inactive)
